Measured values published in publication PMC3389674, “Comparison of Soluble Guanylate Cyclase Stimulators and Activators in Models of Cardiovascular Disease Associated with Oxidative Stress” (Frontiers in Pharmacology, 2012).

Experiments:
WKY rat isolated aorta = assay: vasodilation of phenylephrine-contracted WKY rat isolated aorta with and without ODQ
Procedure: Male Wistar Kyoto (WKY; Charles River Laboratories, Inc., Raleigh, NC, USA) were anesthetized with inhaled isoflurane (5% in O2) and euthanized by exsanguination. Thoracic aorta was isolated, cleaned of adherent tissue, cut into 3 mm rings, and suspended in 10 mL organ baths containing Krebs–Henseleit buffer (KHB) of the following composition (mM): NaCl, 112.0; KCl, 4.7; KH2PO4, 1.2; MgSO4, 1.2; CaCl2, 2.5; NaHCO3, 25.0; glucose, 11.0. KHB was maintained at 37°C and aerated with 95%O2:5%CO2 (pH 7.4). Changes in isometric force were measured under 1g optimal resting tension using MLT0201/D force-displacement transducers (Letica, Barcelona, Spain) and recorded digitally (Chart 5.0 software, ADInstruments, Colorado Springs, CO, USA). After a 1 h equilibration period, each tissue was contracted to equilibrium with 60 mM KCl, washed with KHB and allowed to relax to the resting tension. The 60 mM KCl contraction was repeated and subsequent contractile responses were normalized to this second KCl response. Each tissue was then contracted to equilibration with 1 μM phenylephrine, washed with KHB and allowed to relax to the resting tension. In order to further investigate the mechanism by which BAY 60-4552 and GSK2181236A were modulating sGC function, the vasodilatory effects of both compounds were assessed in the presence and absence of ODQ, a heme-site inhibitor of sGC. Following a 20 min pre-treatment with DMSO vehicle (0.1% final concentration, v/v) or ODQ (10 μM), aortae were contracted with 0.3 μM phenylephrine (an approximate EC80 concentration). Once the contractile response to phenylephrine reached a plateau (∼10 min), contractile tone was reversed by adding cumulative concentrations of BAY 60-4552 or GSK2181236A to the tissue baths at log increments (0.1 nM to 10 μM).

Sprague Dawley rats = assay: myocardial ischemia/reperfusion injury; type: in vivo, rat; settings: for circulating levels of cardiac troponin I (cTnI) / infarct size as a percentage of the area at risk: acute p.o. 2 h prior to ischemia, GSK2181236A 0.1 and 1.0 mg/kg, BAY 60-4552 0.3 and 3 mg/kg, 24 h reperfusion
Procedure: This study was performed at CV Dynamics, Inc. (Newark, NJ, USA). Male SD rats were obtained from Charles River Laboratories, Inc. (Kingston, NY, USA). At 2 months of age, rats were pre-medicated with atropine (0.04 mg/kg IM) then anesthetized with a loading dose of pentobarbital sodium (65 mg/kg IP). A supplemental dose of pentobarbital sodium (16.3 mg/kg IP) was administered 30–40 min after the initial anesthesia. Marcaine (0.025–0.05 mg/rat IM) was administered locally for pain control, and anesthetized rats were subjected to a thoracotomy at the fourth intercostal space. The left descending coronary artery was occluded using a 5-0 silk snare for 30 min, followed by reperfusion for 24 h. The coronary occlusion and reperfusion were verified by visual inspection (color change of myocardium from pale to pink) and by EKG monitoring [ST elevation and widening of the QRS; Gould BioTACH ECG module (Valley View, OH, USA) with a Tektronix TDS 220 monitor (Beaverton, OR, USA)]. A 2% lidocaine solution (2–3 mg/kg) was dripped directly onto the heart as needed for arrhythmia control during ischemia, and procainamide (12.5 mg/kg IP) was administered 15 min prior to reperfusion.
Rats were orally gavaged with vehicle (0.5% HPMC, 5% DMSO, and 0.1% Tween 80; 10 mL/kg; n = 14), GSK2181236A (0.1 or 1.0 mg/kg; n = 11–14), or BAY 60-4552 (0.3 or 3.0 mg/kg; n = 10–12) 2 h prior to ischemia. Blood was collected at the initiation of ischemia and after 24 h reperfusion. Plasma was obtained for analysis of compound concentrations and levels of cardiac Troponin I (cTnI), a circulating biomarker of cardiac injury. Plasma concentrations of cTnI were determined using a commercially available ELISA (catalog #2010-2-HSP, Life Diagnostics, West Chester, PA, USA) according to the manufacturer’s instructions. Plasma compound concentrations were determined by LC/MS/MS (API 5000 triple quadrupole mass spectrometer, ABSciex, Foster City, CA, USA; Prominence liquid chromatographic system, Shimadzu, Columbia, MD, USA). Rats were anesthetized with a mixture of ketamine and xylazine (35 and 5 mg/kg, IM) and euthanized via exsanguination. Hearts were excised and perfused with 1% Evans blue dye in saline then perfused-fixed with 10% neutral buffered formalin (∼90 mmHg perfusion pressure). Hearts were sliced on the short axis from apex to base at 1–2 mm intervals, and the ischemic area (area at risk) was evaluated using Image Pro-Plus (Media Cybernetics, Inc., Bethesda, MD, USA). Fresh heart slices were stained with 1% triphenyltetrazolium and evaluated using Image Pro-Plus for determination of infarct size.

SHR-SP isolated aorta = assay: vasoactivity of SHR-SP isolated aorta (ND, HSFD and after chronic treatment); design: species or system rat
Procedure: In separate studies, endothelial function was assessed following chronic (7 week) BAY 60-4552 or GSK2181236A treatment in SHR-SP on HSFD. SHR-SP fed either normal or HSFD served as controls. Rats were anesthetized and thoracic aorta were isolated and treated with KCl and phenylephrine as described above. Cumulative concentration-response curves to phenylephrine were obtained by adding 0.5 log unit increments (1 nM to 3 μM). Following several washes with KHB, each vessel was contracted to equilibrium with 0.3 μM phenylephrine and tone was reversed by adding cumulative amounts of carbachol at 0.5 log unit intervals (10 nM to 30 μM). Following several KHB washes, the tissues were again contracted to equilibrium with 0.3 μM phenylephrine and tone was reversed by adding cumulative amounts of SNP at 0.5 log unit intervals (0.1 nM to 3 μM). In separate tissues from both the normal and HSFD SHR-SP control groups, the direct vasodilatory effects of BAY 60-4552 and GSK2181236A were investigated. Contractile tone induced by 0.3 μM phenylephrine was reversed by adding cumulative concentrations of BAY 60-4552 or GSK2181236A to the tissue baths at log increments (0.1 nM to 10 μM).

[1] = HSFD + 0.1 mg/kg chronic treatment
[2] = HSFD + 1 mg/kg chronic treatment
[3] = HSFD + 0.3 mg/kg chronic treatment
[4] = HSFD + 3 mg/kg chronic treatment

Cc1cc(-c2ccc(OC(F)(F)F)cc2)ccc1COc1ccccc1-c1cccc(-n2ncc(C(=O)O)c2C(F)(F)F)n1 [GSK2181236A, 1-(6-{2-[({3-methyl-4′-[(trifluoromethyl)oxy]-4-biphenylyl}methyl)oxy]phenyl}-2-pyridinyl)-5-(trifluoromethyl)-1H-pyrazole-4-carboxylic acid]
increase of vasodilatory response by ODQ (WKY rat isolated aorta; 0.1 μM compound, ODQ 10 μM): 41%
increase of vasodilatory response by ODQ (WKY rat isolated aorta; 1 μM compound, ODQ 10 μM): 36%
increase of vasodilatory response by ODQ (WKY rat isolated aorta; 10 μM compound): 21%
mortality rate (Sprague Dawley rats; 0.1 mg/kg p.o., due to anesthesia): 1 of 15
mortality rate (Sprague Dawley rats; 1 mg/kg p.o., arrhythmia during occlusion and unknown cause during reperfusion): 2 of 13
circulating levels of cardiac troponin I (cTnI) (Sprague Dawley rats): did not significantly alter
infarct size as a percentage of the area at risk (Sprague Dawley rats): did not significantly alter
Carbachol Emax in aorta of chronically treated rats (SHR-SP isolated aorta; [1]): 48 ± 14 % reversal of PE tone
Phenylephrine Emax in aorta of chronically treated rats (SHR-SP isolated aorta; [1]): 93 ± 8 % KCl
Sodium nitroprusside Emax in aorta of chronically treated rats (SHR-SP isolated aorta; [1]): 111 ± 3 % reversal of PE tone
Carbachol Emax in aorta of chronically treated rats (SHR-SP isolated aorta; [2]): 59 ± 4 % reversal of PE tone
Phenylephrine Emax in aorta of chronically treated rats (SHR-SP isolated aorta; [2]): 91 ± 8 % KCl
Sodium nitroprusside Emax in aorta of chronically treated rats (SHR-SP isolated aorta; [2]): 100 ± 2 % reversal of PE tone

COC(=O)Nc1c(N)nc(-c2nn(Cc3ccccc3F)c3ncccc23)nc1N [BAY 60-4552]
reduction of vasodilatory response by ODQ (WKY rat isolated aorta; 0.1 μM compound, ODQ 10 μM): 48%
reduction of vasodilatory response by ODQ (WKY rat isolated aorta; 1 μM compound, ODQ 10 μM): 30%
mortality rate (Sprague Dawley rats; 0.3 mg/kg p.o., arrhythmia and trauma during occlusion): 2 of 12
mortality rate (Sprague Dawley rats; 3 mg/kg p.o., cardiac puncture and trauma): 2 of 14
circulating levels of cardiac troponin I (cTnI) (Sprague Dawley rats): did not significantly alter
infarct size as a percentage of the area at risk (Sprague Dawley rats): did not significantly alter
Carbachol Emax in aorta of chronically treated rats (SHR-SP isolated aorta; [3]): 54 ± 6 % reversal of PE tone
Phenylephrine Emax in aorta of chronically treated rats (SHR-SP isolated aorta; [3]): 88 ± 6 % KCl
Sodium nitroprusside Emax in aorta of chronically treated rats (SHR-SP isolated aorta; [3]): 98 ± 5 % reversal of PE tone
Carbachol Emax in aorta of chronically treated rats (SHR-SP isolated aorta; [4]): 67 ± 6 % reversal of PE tone
Phenylephrine Emax in aorta of chronically treated rats (SHR-SP isolated aorta; [4]): 89 ± 7 % KCl
Sodium nitroprusside Emax in aorta of chronically treated rats (SHR-SP isolated aorta; [4]): 112 ± 3 % reversal of PE tone
